Values after ≈ are worked out from the molar mass of the structure shown.
Conditions: 20 °C

Row | SMILES | solubility [mM]
1 | O=C1CC2CC[C@H]1C2 | 17.5 (≈ 1.93 mg/mL)
2 | O=[N+]([O-])OCC(CO[N+](=O)[O-])O[N+](=O)[O-] | 6.08 (≈ 1.38 mg/mL)
3 | O=C1c2c(O)cccc2[C@H]([C@@H]2O[C@H](CO)[C@@H](O)[C@H](O)[C@H]2O)c2cc(CO)cc(O)c21 | 19.8 (≈ 8.3 mg/mL)

Same assay, conditions: 23 °C

Row | SMILES | solubility [mM]
4 | Nc1ccc(N)cc1 | 342 (≈ 37 mg/mL)

Same assay, conditions: 24 °C

Row | SMILES | solubility [mM]
5 | Nc1cccc([N+](=O)[O-])c1 | 8.69 (≈ 1.2 mg/mL)

Same assay, conditions: 25 °C

Row | SMILES | solubility [mM]
6 | O=Cc1ccccc1[N+](=O)[O-] | 15.4 (≈ 2.32 mg/mL)
7 | O=C1NS(=O)(=O)c2ccccc21 | 21.8 (≈ 4 mg/mL)
8 | C=CC=O | 3780 (≈ 212 mg/mL)
9 | O=C1c2cccc(S(=O)(=O)O)c2C(=O)c2c1cccc2S(=O)(=O)O | 18100 (≈ 6660 mg/mL)
10 | O=C1c2cccc(S(=O)(=O)O)c2C(=O)c2cccc(S(=O)(=O)O)c21 | 1810 (≈ 666 mg/mL)
11 | O=Cc1cccc([N+](=O)[O-])c1 | 10.8 (≈ 1.63 mg/mL)
12 | NC(=O)c1ccccc1 | 111 (≈ 13.5 mg/mL)
13 | O=C1C[C@@H]2OCC=C3CN4CC[C@]56c7ccccc7N1[C@H]5[C@H]2[C@H]3C[C@H]46 | 0.478 (≈ 0.16 mg/mL)
14 | CC[C@H]1C[N@@]2CC[C@H]1C[C@H]2[C@H](O)c1ccnc2ccc(OC)cc12 | 0.888 (≈ 0.29 mg/mL)
15 | CCN1C[C@]2(COC)[C@H](O)C[C@H](OC)[C@]34C1[C@H]([C@H](OC)[C@H]23)[C@]1(OC(C)=O)[C@H]2[C@@H](OC(=O)c3ccccc3)[C@](O)(C[C@H]24)[C@@H](OC)[C@@H]1O | 0.48 (≈ 0.31 mg/mL)
16 | CCN(CC)C(=O)CCC(=O)O | 161 (≈ 27.9 mg/mL)
17 | CN1C2CCC1CC(OC(=O)c1ccccc1)C2 (stereo not drawn) | 6.93 (≈ 1.7 mg/mL)
18 | O=C(O)c1ccccc1Cl | 13.3 (≈ 2.09 mg/mL)
19 | O=C(O)c1cccc(Cl)c1 | 2.87 (≈ 0.45 mg/mL)
20 | CCCCCCCCCCC(C(=O)O)C(=O)O | 0.102 (≈ 0.025 mg/mL)
21 | Cc1cc(O)c2c(O)c3c(O)cccc3cc2c1 | 0.874 (≈ 0.21 mg/mL)
22 | NC(N)=S | 1870 (≈ 142 mg/mL)
23 | CC(=O)Oc1ccc2c3c1O[C@H]1[C@@H](OC(C)=O)C=C[C@H]4[C@@H](C2)N(C)CC[C@@]341 | 1.61 (≈ 0.595 mg/mL)
